{"source": "patent US7064133B2", "about": "“Quinoline derivatives process of synthesis and medicaments containing these derivatives” (Bioalliance Pharma, priority 2001, dated 2006)", "format_in_all_cases": "cell-based", "key": {"[1]": {"system": "integration of viral DNA into the host genome", "test": "Inhibition of the integration of viral DNA into the host genome (PCR, densitometry) in infected CEM cells", "settings": "24 hours", "experimental": "This test consists in bringing CEM cells into contact with the supernatant of infected cells containing the infectious virions. After 2 hours, the cells are washed and placed again in RPMI medium containing the compound according to the invention for 24 hours (BioA53). The DNA of the cells is then extracted using a genomic DNA preparation kit (QiaBlood, Qiagen™). This DNA is the target for PCR amplifications aimed at evaluating, on the one hand, the quantity of total viral DNA present in the solution, and, on the other hand, the quantity of viral DNA integrated into the cellular genome. The latter amplification takes place in two stages: the first step uses a PCR primer homologous to a sequence of the retroviral DNA; the second primer is homologous to the repetitive genomic Alu sequences. The second stage is a nested PCR which makes it possible to visualize the retroviral DNA.\nThe quantity of DNA is evaluated by densitometry after separation of the amplification products on agarose gel."}, "CEM": {"system": "CEM", "test": "Cytotoxicity, MTT to formazan test, cells in suspension", "settings": "at 500 μM", "experimental": "(§1) The toxicity of the compounds is evaluated by a test of biotransformation of MTT to formazan by cellular mitochondrial dehydrogenases."}, "HeLa": {"system": "HeLa", "test": "Cytotoxicity, MTT to formazan test, adherent cells", "settings": "at 500 μM", "experimental": "as §1"}}}
{"smiles": "O=C(NCc1ccc(O)c(O)c1)c1ccc2ccc(C(=O)[O-])c(O)c2n1.[Na+]", "note": "[BioA53, sodium 2-(3,4-dihydroxybenzylcarbamoyl)-8-hydroxyquinoline-7-carboxylate]", "values": [{"measurement": "decrease in the quantity of DNA integrated", "setting": "[1]; 50 μM, CEM cells", "result": "at least 80%"}, {"measurement": "inhibition of DNA integrated", "setting": "[1]; 100 μM, CEM cells", "result": "inhibition of the entire DNA integrated"}, {"measurement": "quantity of total viral DNA", "setting": "[1]; treatment of CEM cells with the compound", "result": "not affected"}, {"measurement": "cytotoxicity (MTT)", "setting": "CEM", "result": "lacks cytotoxicity"}, {"measurement": "cytotoxicity (MTT)", "setting": "HeLa", "result": "lacks cytotoxicity"}]}
{"smiles": "O=C(NCc1ccc(O)cc1O)c1ccc2ccc(C(=O)[O-])c(O)c2n1.[Na+]", "note": "[BioA163, sodium 2-(2,4-dihydroxybenzylcarbamoyl)-8-hydroxyquinoline-7-carboxylate]", "values": [{"measurement": "cytotoxicity (MTT)", "setting": "CEM", "result": "lacks cytotoxicity"}, {"measurement": "cytotoxicity (MTT)", "setting": "HeLa", "result": "lacks cytotoxicity"}]}
